Source: US20120005128A1, “METHODS FOR REDUCING THE RISK OF AN ADVERSE DRONEDARONE / CALCIUM CHANNEL BLOCKERS INTERACTION IN A PATIENT SUFFERING FROM ATRIAL FIBRILATION” (sanofi, priority 2010, published 2012)
Structures can show the parent of a compound that is named as a salt. One block for each molecule: values may come before it.

What was measured:
[1] = ATHENA clinical study, patients with calcium channel blockers baseline medication; assay type: in vivo
Text: Calcium channel blockers have been used in ATHENA clinical study and at the same rate in the dronedarone group and in the placebo group. About 13 to 20% of the patients had received one of these compounds during the study.
In the ATHENA trial, the concomitant administration of calcium antagonists and dronedarone was done according to the above mentioned instructions, i.e. start with low doses of the calcium antagonist and then increase the dose after ECG verification of good tolerability, if necessary and based on individual patient characteristics.
The relative risk (RR) was estimated using Cox's […] regression model.
The relative risk (RR) is the ratio of the rates of occurrence of a hospitalization or of a death among the patients on dronedarone, relative to the patients on placebo.
The percentage reduction x of a given event (hospitalization, death, cardiovascular death, etc.) is calculated in the following way: […]

[2] = 12-lead ECG (PR, QTcF intervals) in dronedarone/verapamil interaction study, Day 14; conditions: baseline Day 1, -0.5 h, least square means
[3] = Dronedarone/verapamil pharmacokinetic interaction crossover study, plasma PK on Day 14
[4] = 331 patients with calcium channel blockers baseline medication, 122 events in placebo group (307 patients)
[5] = versus placebo, Cox model, calcium channel blockers baseline medication
[6] = versus placebo, calcium channel blockers baseline medication
[7] = dronedarone plus verapamil versus dronedarone alone
[8] = verapamil plus dronedarone versus verapamil alone

Compound: CCCCc1oc2ccc(NS(C)(=O)=O)cc2c1C(=O)c1ccc(OCCCN(CCCC)CCCC)cc1 [dronedarone hydrochloride]
Number of events, hospitalization for congestive heart failure (CHF) ([1]; 331 patients with calcium channel blockers baseline medication, 23 events in placebo group (307 patients)): 14
Number of events, cardiovascular hospitalization or death [1, 4]: 90
Number of events, death [1, 4]: 90
Relative risk, cardiovascular hospitalization or death [1, 5]: 0.628
Relative risk, death [1, 5]: 0.628
Relative risk, hospitalization for congestive heart failure (CHF) [1, 5]: 0.556
Decrease of CHF [1, 6]: 44%
Decrease of cardiovascular hospitalization or death [1, 6]: 37%
Decrease of death [1, 6]: 37%

Compound: COc1ccc(CCN(C)CCCC(C#N)(c2ccc(OC)c(OC)c2)C(C)C)cc1OC (stereo not drawn) [VP, verapamil]
Mean change (Eavr) in PR from baseline [2]: 4.2 ms
Mean change (Eavr) in QTcF from baseline [2]: 2.1 ms

Compound: CCCCc1oc2ccc(NS(C)(=O)=O)cc2c1C(=O)c1ccc(OCCCN(CCCC)CCCC)cc1 [Dronedarone, 2-n-Butyl-3-[4-(3-di-n-butylaminopropoxy)benzoyl]-5-methylsulphonamidobenzofuran]
Risk of hypotension, bradycardia and heart failure ([1]; patients using both dronedarone and calcium antagonists): no increase of the risk of hypotension, bradycardia and heart failure
Mean change (Eavr) in PR from baseline [2]: 9.7 ms
Mean change (Eavr) in QTcF from baseline [2]: 22.1 ms
Ratio of geometric means, AUC0-12 [3, 7]: 1.48
Ratio of geometric means, Cmax [3, 7]: 1.42

Ratio of geometric means, AUC0-24 [3, 8]: 1.29
Ratio of geometric means, Cmax [3, 8]: 1.31
Compound: COc1ccc(CCNCCCC(C#N)(c2ccc(OC)c(OC)c2)C(C)C)cc1OC (stereo not drawn) [NVP, norverapamil]
